Reference: patent US8614218B2, “Fused bicyclic pyrimidines” (Bayer Intellectual Property GmbH, priority 2007, dated 2013)

Experiments:
A549 cells = assay: Cellular proliferation/cytotoxicity assay (Alamar Blue), A549; format: cell-based; conditions: Homo sapiens, 72 h, Alamar Blue (Resazurin), read-out: Anti-proliterative/Cytotoxic activity (A549 cells)
Method: (§1) Cellular Proliferation/Cytotoxicity Assay:
(§2) The anti-proliferative activity of the compounds as described herein, is evaluated using the OvCAR3, HCT116 and A549 cell lines and the Alamar Blue (Resazurin) cell viability assay (O'Brien et al. Eur J Biochem 267, 5421-5426, 2000). Resazurin is reduced to the fluorescent resorufin by cellular dehydrogenase activity, correlating with viable, proliferating cells. Test compounds are dissolved as 10 mM solutions in DMSO and subsequently diluted. Cells like HCT116 or A549 cells were seeded into 96 well flat bottom plates at a density of 10000 cells/well (OvCAR3 cells), 1000 cells/well (HCT116 cells) or 2000 cells/well (A549 cells) in a volume of 200 μl/well. 24 hours after seeding, 1 μl each of the compound dilutions are added into each well of the 96 well plates. Each compound dilution is tested as at least as duplicates. Wells containing untreated control cells were filled with 200 μl DMEM (Dulbecco's Modified Eagle Medium) containing 0.5 vol % v:v DMSO. The cells are then incubated with the substances for 72 h at 37° C. in a humidified atmosphere containing 5 vol % CO2. To determine the viability of the cells, 20 μl of a Resazurin solution (90 mg/l) are added. After 4 h incubation at 37° C., the fluorescence is measured by extinction at λ=544 nm and an emission of λ=590 nm (Wallac Victor2; Perkin Elmer, USA). For the calculation of the cell viability, the emission value from untreated cells is set as 100% viability and the fluorescence intensity of treated cells are set in relation to the values of untreated cells. Viabilities are expressed as % values. The corresponding IC50 values of the compounds for cytotoxic activity are determined from the concentration-effect curves by means of non-linear regression. The analysis of the data is performed using a biostatistical program (GraphPad Prism, USA).
(§3) Representative IC50 values for anti-proliferative/cytotoxic potency determined in the aforementioned assay follow from the following table, in which the numbers of the compound correspond to the numbers of the examples.

OvCAR3 cells = assay: Cellular proliferation/cytotoxicity assay (Alamar Blue), OvCAR3; format: cell-based; conditions: Homo sapiens, OVCAR-3, 72 h, Alamar Blue (Resazurin), read-out: Anti-proliferative/Cytotoxic activity (OvCAR3 cells)
Method: as §1, §2, §3

Compound | IC50 (A549 cells) [µM] | IC50 (OvCAR3 cells) [µM]
CCOC(=O)c1cn2cc(-c3ccccc3)c(-c3ccc(CN4CCC(c5n[nH]c(-c6ccccn6)n5)CC4)cc3)nc2n1 [Example 16, Ethyl 6-phenyl-7-(4-{[4-(5-pyridin-2-yl-1,2,4-triazol-3-yl)piperidin-1-yl]methyl}phenyl)imidazo[1,2-a]pyrimidine-2-carboxylate] | > 10 | < 10
c1ccc(-c2cn3ncnc3nc2-c2ccc(CN3CCC(c4n[nH]c(-c5ccccn5)n4)CC3)cc2)cc1 [Example 2, 6-phenyl-5-(4-{[4-(5-pyridin-2-yl-1,2,4-triazol-3-yl)piperidin-1-yl]methyl}phenyl)[1,2,4]triazolo[1,5-a]pyrimidine] | > 10 | < 10
Fc1cnc2nc(-c3ccc(CN4CCC(c5n[nH]c(-c6ccccn6)n5)CC4)cc3)c(-c3ccccc3)cn12 [Example 9, 3-fluoro-6-phenyl-7-(4-{[4-(5-pyridin-2-yl-1H-1,2,4-triazol-3-yl)piperidin-1-yl]methyl}phenyl)imidazo[1,2-a]pyrimidine] | > 10 | < 10
Clc1cnc2nc(-c3ccc(CN4CCC(c5n[nH]c(-c6ccccn6)n5)CC4)cc3)c(-c3ccccc3)cn12 [Example 12, 3-chloro-6-phenyl-7-(4-{[4-(5-pyridin-2-yl-1,2,4-triazol-3-yl)piperidin-1-yl]methyl}phenyl)imidazo[1,2-a]pyrimidine] | < 10 | < 10
CCc1cnc2nc(-c3ccc(CN4CCC(c5n[nH]c(-c6ccccn6)n5)CC4)cc3)c(-c3ccccc3)cn12 [Example 22, 3-ethyl-6-phenyl-7-(4-{[4-(5-pyridin-2-yl-1,2,4-triazol-3-yl)piperidin-1-yl]methyl}phenyl)imidazo[1,2-a]pyrimidine] | > 10 | < 10
c1ccc(-c2cn3nc(C4CCC4)nc3nc2-c2ccc(CN3CCC(c4n[nH]c(-c5ccccn5)n4)CC3)cc2)cc1 [Example 7, 2-cyclobutyl-6-phenyl-5-(4-{[4-(5-pyridin-2-yl-1,2,4-triazol-3-yl)piperidin-1-yl]methyl}phenyl)[1,2,4]triazolo[1,5-a]pyrimidine] | > 10 | < 10
c1ccc(-c2cn3ccnc3nc2-c2ccc(CN3CCC(c4n[nH]c(-c5ncccn5)n4)CC3)cc2)cc1 [Example 18, 6-phenyl-7-(4-{[4-(5-pyrimidin-2-yl-1,2,4-triazol-3-yl)piperidin-1-yl]methyl}phenyl)imidazo[1,2-a]pyrimidine] | > 10 | < 10
Cc1nc2nc(-c3ccc(CN4CCC(c5n[nH]c(-c6ccccn6)n5)CC4)cc3)c(-c3ccccc3)cn2n1 [Example 3, 2-methyl-6-phenyl-5-(4-{[4-(5-pyridin-2-yl-1,2,4-triazol-3-yl)piperidin-1-yl]methyl}phenyl)[1,2,4]triazolo[1,5-a]pyrimidine] | < 10 | < 10
c1ccc(-c2cn3ccnc3nc2-c2ccc(CN3CCC(c4n[nH]c(-c5cnccn5)n4)CC3)cc2)cc1 [Example 21, 6-phenyl-7-(4-{[4-(5-pyrazin-2-yl-1,2,4-triazol-3-yl)piperidin-1-yl]methyl}phenyl)imidazo[1,2-a]pyrimidine] | > 10 | < 10
c1ccc(-c2cn3nccc3nc2-c2ccc(CN3CCC(c4n[nH]c(-c5ccccn5)n4)CC3)cc2)cc1 [Example 19, 6-phenyl-5-(4-{[4-(5-pyridin-2-yl-1,2,4-triazol-3-yl)piperidin-1-yl]methyl}phenyl)pyrazolo[1,5-a]pyrimidine] | > 10 | < 10
c1ccc(-c2cn3nc(C4CC4)nc3nc2-c2ccc(CN3CCC(c4n[nH]c(-c5ccccn5)n4)CC3)cc2)cc1 [Example 4, 2-cyclopropyl-6-phenyl-5-(4-{[4-(5-pyridin-2-yl-1,2,4-triazol-3-yl)piperidin-1-yl]methyl}phenyl)[1,2,4]triazolo[1,5-a]pyrimidine] | < 10 | < 10
C#Cc1cnc2nc(-c3ccc(CN4CCC(c5n[nH]c(-c6ccccn6)n5)CC4)cc3)c(-c3ccccc3)cn12 [Example 13, 3-ethynyl-6-phenyl-7-(4-{[4-(5-pyridin-2-yl-1,2,4-triazol-3-yl)piperidin-1-yl]methyl}phenyl)imidazo[1,2-a]pyrimidine] | < 10 | < 10
c1ccc(-c2cn3ccnc3nc2-c2ccc(CN3CCC(c4nc(-c5ccccn5)n[nH]4)CC3)cc2)cc1 [Example 1, 6-phenyl-7-(4-{[4-(3-pyridin-2-yl-1,2,4-triazol-5-yl)piperidin-1-yl]methyl}phenyl)imidazo[1,2-a]pyrimidine] | > 10 | < 10
C=Cc1cnc2nc(-c3ccc(CN4CCC(c5n[nH]c(-c6ccccn6)n5)CC4)cc3)c(-c3ccccc3)cn12 [Example 15, 6-phenyl-7-(4-{[4-(5-pyridin-2-yl-1,2,4-triazol-3-yl)piperidin-1-yl]methyl}phenyl)-3-vinylimidazo[1,2-a]pyrimidine] | > 10 | < 10
c1ccc(-c2cn3nccc3nc2-c2ccc(CN3CCC(c4cc(-c5ccccn5)n[nH]4)CC3)cc2)cc1 [Example 76, 6-Phenyl-5-(4-{[4-(3-pyridin-2-yl-1H-pyrazol-5-yl)piperidin-1-yl]methyl}phenyl)pyrazolo[1,5-a]pyrimidine] | > 10 | 
Cc1cc2nc(-c3ccc(CN4CCC(c5n[nH]c(-c6ccccn6)n5)CC4)cc3)c(-c3ccccc3)cn2n1 [Example 44, 2-Methyl-6-phenyl-5-(4-{[4-(5-pyridin-2-yl-1H-1,2,4-triazol-3-yl)piperidin-1-yl]methyl}phenyl)pyrazolo[1,5-a]pyrimidine] | > 10 | 
Cc1nc2nc(-c3ccc(CN4CCC(c5n[nH]c(-c6nccs6)n5)CC4)cc3)c(-c3ccccc3)cn2n1 [Example 43, 2-Methyl-6-phenyl-5-[4-({4-[5-(1,3-thiazol-2-yl)-1H-1,2,4-triazol-3-yl]piperidin-1-yl}methyl)phenyl][1,2,4]triazolo[1,5-a]pyrimidine] | < 10 | 
Cc1nc2nc(-c3ccc(CN4CCC(c5nc(-c6ccc[nH]6)n[nH]5)CC4)cc3)c(-c3ccccc3)cn2n1 [Example 73, 2-Methyl-6-phenyl-5-[4-({4-[3-(1H-pyrrol-2-yl)-1H-1,2,4-triazol-5-yl]piperidin-1-yl}methyl)phenyl][1,2,4]triazolo[1,5-a]pyrimidine] | < 10 | 
Cc1nc2nc(-c3ccc(CN4CCC(c5n[nH]c(-c6ccncc6)n5)CC4)cc3)c(-c3ccccc3)cn2n1 [Example 47, 2-Methyl-6-phenyl-5-(4-{[4-(5-pyridin-4-yl-1H-1,2,4-triazol-3-yl)piperidin-1-yl]methyl}phenyl)[1,2,4]triazolo[1,5-a]pyrimidine] | < 10 | 
c1ccc(-c2cn3nccc3nc2-c2ccc(CN3CCC(c4nc(-c5nccs5)n[nH]4)CC3)cc2)cc1 [Example 70, 6-Phenyl-5-[4-({4-[3-(1,3-thiazol-2-yl)-1H-1,2,4-triazol-5-yl]piperidin-1-yl}methyl)phenyl]pyrazolo[1,5-a]pyrimidine] | > 10 | 
Cc1cccc(-c2n[nH]c(C3CCN(Cc4ccc(-c5nc6nc(C)nn6cc5-c5ccccc5)cc4)CC3)n2)n1 [Example 74, 2-Methyl-5-[4-({4-[3-(6-methylpyridin-2-yl)-1H-1,2,4-triazol-5-yl]piperidin-1-yl}methyl)phenyl]-6-phenyl[1,2,4]triazolo[1,5-a]pyrimidine] | < 10 | 
